Reference: a melting point compilation (Tetko et al.; mined from patent text by program, amines drawn as free bases though some values may be those of a salt)

melting point | Structure (SMILES)
> 300 °C | CCC(C)C(C)C(=O)Nc1ccc2c(C)cn3c(=O)c(C(=O)Nc4nnn[nH]4)cnc3c2c1 (centres undefined)
152 to 154 °C | CCOC(=O)Cc1csc(-c2c(O)cccc2O)n1
103 to 105 °C | O=C(COc1cccnc1)NCCCCC1CCN(C(c2ccccc2)c2ccccc2)CC1
89.2 to 91 °C | COCc1c(C(=O)OC)c2cc(OC)ccc2n1C
90 to 95 °C | CC(=O)Nc1ccccc1C(=O)C=CN(C)C
197 to 199 °C | CCc1nn(-c2ccc(F)cc2)c2cc(C(=O)Nc3c(Cl)cncc3Cl)ccc12
70 °C | Cc1nc(Cl)c2c(n1)c(C)nn2CC(F)(F)F
69 to 71 °C | CCOC(=O)C1=C(COCCOCCN)NC(C)=C(C(=O)OC)C1c1cccc(Cl)c1Cl (single isomer, unassigned; (-))
160 to 165 °C | N#Cc1ccc(C(=O)CNc2ccc(I)cc2)cc1
63 to 64 °C | CC(C)Oc1ccc(CO)c(Oc2ncc(C(F)(F)F)cc2Cl)c1
187 to 189 °C | CN1CCN(c2ncnc3c(N)cccc23)C1=O
255 °C | COc1cc(NC(=O)c2ccco2)ccc1S(=O)(=O)N1C(=O)C(c2ccccc2Cl)(N(C)C)c2cc(Cl)ccc21 (centres undefined)
80 to 85 °C | CCCCc1nc(I)c(C=O)[nH]1
182 to 189 °C | Cc1nc(N)c(C#N)cc1-c1ccccc1
186 to 187 °C | CCCCc1nn(-c2ccccc2C(F)(F)F)c(=O)n1Cc1ccc(-c2ccccc2S(=O)(=O)Nc2ccc([N+](=O)[O-])cc2)cc1
162 °C | CC1(C)[C@H](C(=O)O)[C@@H]1C=C1CCSC1=O
280 to 283 °C | N#Cc1c(N)nc2ccc([N+](=O)[O-])cc2c1NCc1ccccc1
93 to 95 °C | CC(=O)c1ccc(-c2ccc(F)cc2Cl)c([N+](=O)[O-])c1
68 to 72 °C | CNc1nc(NC)nc(OC(F)(F)F)n1
72.5 to 74.5 °C | O=Cc1c(F)cccc1NCc1ccccc1

melting point | Structure (SMILES)
232 to 234 °C | CCC(C)CNC1=NS(=O)(=O)c2sc(Cl)cc2N1 (centres undefined)
175 to 177 °C | COc1ccc(N(C=C(C#N)C#N)CCC#N)cc1
286 to 288 °C | O=C(Nc1ccc2nc(S)[nH]c2c1)C(=O)N1CCC(Cc2ccc(F)cc2)CC1
337 to 338 °C | Cc1c2cnccc2c(C)c2c1c1cc(O)ccc1n2C
130 °C | CC(C)Nc1c(C#N)cnn1-c1c(Cl)cc(SC(F)(F)F)cc1Cl
102 to 103 °C | O=S(=O)(C=Cc1ccccc1)On1nnc2ccccc21
> 350 °C | CCOc1ccc(Nc2nc3nc[nH]c3c(=O)[nH]2)cn1
150 to 151 °C | C[C@H](NC(=O)C[C@H](O)CC(=O)/C=C/c1c(C2CC2)nc2ccccc2c1-c1ccc(F)cc1)c1ccccc1
320 to 325 °C | O=C(CCl)NCc1ccc(-c2cc3c(Nc4ccc(F)c(Cl)c4)ncnc3[nH]2)cc1
147 °C | CCOC(=O)C1=C(N)NC(N)=C(C(=O)OCC)C1c1ccccc1OC
257 to 259 °C | Nc1cc(C(c2ccc([N+](=O)[O-])c(N)c2)(C(F)(F)F)C(F)(F)F)ccc1[N+](=O)[O-]
177 °C | CC(=O)NN=C(C(=O)NN)c1ccccc1
198 °C | CC(=O)OC1CSC(Oc2cnccc2C(F)(F)F)C(OC(C)=O)C1OC(C)=O (centres undefined)
186 to 187 °C | CCOC(=O)c1cn(C2CC2)c2nc(Sc3ccc(C)cc3)c(F)cc2c1=O
158 to 161 °C | COC(=O)[C@H]1CC[C@H](N2CCN(c3ccc(C4(C)CCN(C(=O)C(F)(F)F)CC4)cc3)C2=O)CC1
320 to 325 °C | COc1cc2nc(=O)n3[nH]cnc3c2cc1OC
200 to 203 °C | CC(=O)Oc1ccc(Cn2c(-c3ccccc3)nc(Cl)c2CC(=O)O)cc1C
203 °C | CC(C)(C)OC(=O)CN(C(=O)CNC(=O)c1cc2ccccc2[nH]1)c1ccccc1
149 to 150 °C | CC1(C)CCC(C)(C)c2cc(C(C)(O)C(=O)O)ccc21 (centres undefined)
